{
  "source": "patent US20200063214A1",
  "about": "“METHODS OF IDENTIFYING PATIENTS LIKELY TO BENEFIT FROM TREATMENT WITH A TELOMERASE INHIBITOR” (Geron Corporation, priority 2018, published 2020)",
  "assay_type_in_all_cases": "in vivo, human",
  "key": {"[1]": {"system": "intermediate-2 or high-risk myelofibrosis (MF) relapsed/refractory to JAK inhibitor", "test": "Phase 2 study: spleen response (spleen volume reduction, SVR, by MRI at week 24)", "details": "for subjects with SVR >= 20% at week 24, No / subjects with SVR >= 20% at week 24, Yes / subjects with SVR >= 35% at wk 24 by IRC, No / subjects with SVR >= 35% at wk 24 by IRC, Yes / subjects with SVR >= 20% at Week 24 by IRC, No / subjects with SVR >= 20% at Week 24 by IRC, Yes / subjects with SVR >= 35% at Week 24 by IRC, Yes / subjects with SVR >= 35% at week 24 by IRC, No: 9.4 mg/kg", "excerpt": "(§1) Diagnosis of primary, post-essential thrombocythemia, or post-polycythemia vera MF was required; other eligibility criteria included measurable splenomegaly (by magnetic resonance imaging [MRI]), active MF-related systemic symptoms and platelet count ≥75×10^9/L. Primary endpoints were: spleen response rate (% achieving ≥35% spleen volume reduction [SVR] by MRI at week 24); and symptom response rate (% achieving ≥50% reduction in total symptom score [TSS] per the Myelofibrosis Symptom Assessment Form (MFSAF) v2 at week 24). Key secondary endpoints included safety, overall survival (OS), treatment response, molecular response, and pharmacokinetic and pharmacodynamic relationships."}, "[2]": {"system": "intermediate-2 or high-risk myelofibrosis (MF) relapsed/refractory to JAK inhibitor", "test": "Phase 2 study: symptom response (total symptom score, TSS, MFSAF v2 at week 24)", "details": "for subjects with TSS >= 50% decrease at week 24, No / subjects with TSS >= 50% decrease at week 24, Yes: 9.4 mg/kg", "excerpt": "as §1"}, "[3]": {"system": "intermediate-2 or high-risk myelofibrosis (MF) relapsed/refractory to JAK inhibitor", "test": "Phase 2 study: overall survival (OS)", "details": "9.4 mg/kg arm", "excerpt": "as §1"}, "[4]": {"details": "HMR with 1 Mutation, 21 subjects"}, "[5]": {"details": "HMR with >1 Mutation, 14 subjects"}, "[6]": {"details": "all patients, first clinical cutoff"}},
  "note": "Values joined by “and” are separate entries in the source; they are usually repeats but may differ in a detail not shown here. Equal values may be shown once. “Also recorded” adds a separate entry of the source.",
  "data": [
    {"substance": "DNA, d(3′-amino-3′-deoxy-P-thio) (T-A-G-G-G-T-T-A-G-A-C-A-A), 5′-[O-[2-hydroxy-3-(hexadecanoylamino)propyl] phosphorothioate], sodium salt (1:13) [imetelstat sodium]", "values": [
      {"measurement": "spleen response rate (>=35% SVR by MRI at week 24)", "setting": "[1]; 9.4 mg/kg IV every 3 weeks arm, all patients (n = 59)", "value": 10.2, "unit": "%"},
      {"measurement": "rate of response (SVR or TSS), LMR or HMR with only 1 mutation compared to HMR with more than 1 mutations", "setting": "[1]; 9.4 mg/kg arm, week 24", "value": "higher rate of response"},
      {"measurement": "rate of response (SVR or TSS), TN group compared to Non-TN group", "setting": "[1]; 9.4 mg/kg arm, week 24", "value": "higher rate of response"},
      {"measurement": "subjects with SVR >= 20% at week 24, No", "setting": "[1]; [4]", "value": "15 (71.4%)"},
      {"measurement": "subjects with SVR >= 20% at week 24, Yes", "setting": "[1]; [4]", "value": "6 (28.6%)"},
      {"measurement": "subjects with SVR >= 35% at wk 24 by IRC, No", "setting": "[1]; [4]", "value": "17 (81%)"},
      {"measurement": "subjects with SVR >= 35% at wk 24 by IRC, Yes", "setting": "[1]; [4]", "value": "4 (19%)"},
      {"measurement": "subjects with SVR >= 20% at week 24, No", "setting": "[1]; [5]", "value": "13 (92.9%)"},
      {"measurement": "subjects with SVR >= 20% at week 24, Yes", "setting": "[1]; [5]", "value": "1 (7.1%)"},
      {"measurement": "subjects with SVR >= 35% at wk 24 by IRC, Yes", "setting": "[1]; [5]", "value": "0 (0%)"},
      {"measurement": "subjects with SVR >= 20% at week 24, No", "setting": "[1]; LMR, No Mutation, 22 subjects", "value": "17 (77.3%)"},
      {"measurement": "subjects with SVR >= 20% at week 24, Yes", "setting": "[1]; LMR, No Mutation, 22 subjects", "value": "5 (22.7%)"},
      {"measurement": "subjects with SVR >= 35% at wk 24 by IRC, No", "setting": "[1]; LMR, No Mutation, 22 subjects", "value": "20 (90.9%)"},
      {"measurement": "subjects with SVR >= 35% at wk 24 by IRC, Yes", "setting": "[1]; LMR, No Mutation, 22 subjects", "value": "2 (9.1%)"},
      {"measurement": "subjects with SVR >= 20% at Week 24 by IRC, No", "setting": "[1]; Non-TN, 41 subjects", "value": "34 (82.9%)"},
      {"measurement": "subjects with SVR >= 20% at Week 24 by IRC, Yes", "setting": "[1]; Non-TN, 41 subjects", "value": "7 (17.1%)"},
      {"measurement": "subjects with SVR >= 35% at Week 24 by IRC, Yes", "setting": "[1]; Non-TN, 41 subjects", "value": "3 (7.3%)"},
      {"measurement": "subjects with SVR >= 35% at week 24 by IRC, No", "setting": "[1]; Non-TN, 41 subjects", "value": "38 (92.7%)"},
      {"measurement": "subjects with SVR >= 20% at Week 24 by IRC, No", "setting": "[1]; TN, 16 subjects", "value": "11 (68.75)) %"},
      {"measurement": "subjects with SVR >= 20% at Week 24 by IRC, Yes", "setting": "[1]; TN, 16 subjects", "value": "5 (31.25%)"},
      {"measurement": "subjects with SVR >= 35% at Week 24 by IRC, Yes", "setting": "[1]; TN, 16 subjects", "value": "3 (18.75%)"},
      {"measurement": "subjects with SVR >= 35% at week 24 by IRC, No", "setting": "[1]; TN, 16 subjects", "value": "13 (81.25%)"},
      {"measurement": "spleen response rate, comparison by HMR mutation", "setting": "[1]; patients with 1 HMR mutation (ASXL1, EZH2, SRSF2, or IDH1/2)", "value": "higher"},
      {"measurement": "symptom response rate (TSS reduction >=50% at week 24)", "setting": "[2]; 9.4 mg/kg arm, all patients (n = 59)", "value": 32, "unit": "%"},
      {"measurement": "subjects with TSS >= 50% decrease at week 24, No", "setting": "[2]; [4]", "value": "14 (66.7%)"},
      {"measurement": "subjects with TSS >= 50% decrease at week 24, Yes", "setting": "[2]; [4]", "value": "7 (33.3%)"},
      {"measurement": "subjects with TSS >= 50% decrease at week 24, No", "setting": "[2]; [5]", "value": "11 (78.6%)"},
      {"measurement": "subjects with TSS >= 50% decrease at week 24, Yes", "setting": "[2]; [5]", "value": "3 (21.4%)"},
      {"measurement": "subjects with TSS >= 50% decrease at week 24, No", "setting": "[2]; LMR, No Mutation, 22 subjects", "value": "14 (63.6%)"},
      {"measurement": "subjects with TSS >= 50% decrease at week 24, Yes", "setting": "[2]; LMR, No Mutation, 22 subjects", "value": "8 (36.4%)"},
      {"measurement": "subjects with TSS >= 50% decrease at week 24, No", "setting": "[2]; Non-TN, 41 subjects", "value": "31 (75.6%)"},
      {"measurement": "subjects with TSS >= 50% decrease at week 24, Yes", "setting": "[2]; Non-TN, 41 subjects", "value": "10 (24.4%)"},
      {"measurement": "subjects with TSS >= 50% decrease at week 24, No", "setting": "[2]; TN, 16 subjects", "value": "8 (50%)"},
      {"measurement": "subjects with TSS >= 50% decrease at week 24, Yes", "setting": "[2]; TN, 16 subjects", "value": "8 (50%)"},
      {"measurement": "Median survival, months (95% CI)", "setting": "[3]; Non-TN subjects, first clinical cutoff", "value": "23.6 months and 23.6 (20.7, NE) months"},
      {"measurement": "OS HR (95% CI)", "setting": "[3]; Non-TN vs TN, first clinical cutoff", "value": "2.76 (0.81, 9.46)"},
      {"measurement": "Death rate %", "setting": "[3]; Non-TN, first clinical cutoff", "value": 41.5, "unit": "%"},
      {"measurement": "Median survival, months (95% CI)", "setting": "[3]; TN subjects, first clinical cutoff", "value": "has not been reached; also recorded: not estimable; also recorded: NE (23.2, NE)"},
      {"measurement": "Death rate %", "setting": "[3]; TN, first clinical cutoff", "value": 18.8, "unit": "%"},
      {"measurement": "18-month survival rate", "setting": "[3]; [6]", "value": 76.7, "unit": "%"},
      {"measurement": "median OS", "setting": "[3]; [6]", "value": "has not been reached"},
      {"measurement": "median OS", "setting": "[3]; all patients, second clinical cutoff", "value": 29.9, "unit": "months"},
      {"measurement": "death rate, TN group compared to Non-TN group", "setting": "[3]; first clinical cutoff", "value": "lower death rate"},
      {"measurement": "death rate, TN group compared to Non-TN group", "setting": "[3]; second clinical cutoff", "value": "lower death rate"}
    ]}
  ]
}
